Test results taken from US20240400547A1, “2,6-PIPERIDINEDIONE COMPOUND AND APPLICATION THEREOF” (MEDSHINE DISCOVERY INC., priority 2021, published 2024).
Counter-ions that a name gives are not always drawn.

Tests used:
TMD-8 = assay: Antiproliferative effect in lymphoma cell line TMD-8 (CellTiter-Glo); type: cell-based; settings: TMD-8, 5 days; for IC50: Homo sapiens, TMD8, 120 h
Procedure: Experimental purpose: The experiment aims to evaluate the inhibitory effects of the test compounds on cell proliferation in the diffuse large B-cell lymphoma (DLBCL) cell lines OCI-LY10 and TMD-8.
(§1) The tumor cell lines were cultured in a 37° C., 5% CO2 incubator under the above culture conditions. Regular passage, and cells in logarithmic growth phase were taken for plating.
(§2) • (1) Cells were stained with trypan blue and viable cells were counted. • (2) The cell concentration was adjusted to an appropriate concentration.
• (3) 100 μL of cell suspension per well was added to the culture plate as shown above. • (4) The culture plate was cultured overnight in a 37° C., 5% CO2 incubator with 100% relative humidity.
Preparation of stock solution storage plate with 1000 times the initial concentration of the compound: The compound was serially diluted with DMSO from the highest concentration to the lowest concentration. The solution was prepared as needed each time.
4. Preparation of 1000× Compound Working Solution and Cell Treatment with Compounds • (1) Preparation of the working solution with 5 times the initial concentration of the compound: For 3-fold dilution of the compound, 30 μL of the compound from a stock solution at 1000-fold concentration was taken, and 20 μL of DMSO was added to the subsequent wells. Then, 10 μL was transferred from one concentration to the next in sequence. For 5-fold dilution of the compound, 30 μL of the compound from a stock solution at 1000-fold concentration was taken, and 24 μL of DMSO was added to the subsequent wells. Then, 6 μL was transferred from one concentration to the next in sequence. 20 μL of DMSO was added to the vehicle control. The 1000-fold concentrated compound was diluted 200 times with culture medium, i.e., 1 μL of the 1000-fold diluted compound is added to 199 μL of culture medium, and the mixture was homogenized using a pipette. • (2) Compound addition: 25 μL of the 5-fold compound solution was added to the cell culture plate. • (3) The 96-well cell plate was returned to the incubator to culture OCI-LY10 (with either 3-fold or 5-fold dilution, incubated with compounds added for 5 days) and TMD-8 (with either 3-fold or 5-fold dilution, incubated with compounds added for 5 days).
(§3) The following steps were performed according to the instructions of Promega CellTiter-Glo luminescent cell viability assay kit (Promega-G7573). • (1) CellTiter-Glo buffer was melted and brought to room temperature. • (2) CellTiter-Glo substrate was brought to room temperature. • (3) CellTiter-Glo working solution was prepared by adding 10 mL of CellTiter-Glo buffer to a vial of CellTiter-Glo substrate to dissolve the substrate. • (4) The mixture was slowly vortexed and shaken to be fully dissolved. • (5) The cell culture plate was taken out and left for 30 minutes to equilibrate to room temperature. • (6) 60 μL of CellTiter-Go working solution was added per well (equal to half the volume of cell culture medium per well). The cell plate was wrapped in aluminum foil to be protected from light. • (7) The culture plate was shaken on an orbital shaker for 2 minutes to induce cell lysis. • (8) The culture plate was left at room temperature for 10 minutes to stabilize the luminescent signal. • (9) The luminescent signal was detected on a 2104 EnVision plate reader.
(§4) The inhibition rate (IIR) of the test compound was calculated using the following formula: IR (%)=(1−RLU compound/RLU vehicle control)*100%. The inhibition rates of compounds at different concentrations were calculated in Excel, and then GraphPad Prism software was used to plot inhibition curves and calculate relevant parameters, including minimum inhibition rate, maximum inhibition rate, and IC50.

SU-DHL-2 = assay: Antiproliferative effect in lymphoma cell line SU-DHL-2 (CellTiter-Glo); type: cell-based, human; settings: SU-DHL-2, 4 days; for IC50: Homo sapiens, 96 h
Procedure: Experimental purpose: The experiment aims to evaluate the inhibitory effects of the test compounds on cell proliferation in the lymphoma cell line SU-DHL-2.
as §1, §2
• (3) 50 μL of cell suspension per well was added to the culture plate as shown in the figure above. • (4) The culture plate was cultured overnight in a 37° C., 5% CO2 incubator with 100% relative humidity.
Compounds were added using the Echo655 instrument. The volume of compound added was 50 nL, with a final DMSO concentration of 0.1%. The culture plate was centrifuged at 1000 rpm for 1 minute, then incubated for 4 days in an incubator at 37° C., 5% CO2, and with 100% relative humidity.
as §3, with “adding” for “adding 10 mL of”, “substrate;” for “substrate.”, “25” for “60”, “CellTiter-Glo” for “CellTiter-Go”
as §4, with “(IR)” for “(IIR)”, “(%)=(1−(RLU” for “(%)=(1−RLU”, “compound/RLU blank control)/(RLU” for “compound/RLU”, “control−RLU blank control)×100%.” for “control)*100%.”

| Compound | IC50 (TMD-8) [nM] | IC50 (SU-DHL-2) [nM] | Maximum inhibition rate (TMD-8) [%] | Maximum inhibition rate (SU-DHL-2) [%] |
| --- | --- | --- | --- | --- |
| O=C1CCC(c2coc3cc(NC(=O)CN4CCN(C[C@H]5CC[C@H](N6CC(NC(=O)c7coc(-c8ccnc(NCC9CC9)c8)n7)C(C(F)F)N6)CC5)CC4)ccc23)C(=O)N1 (stereo partly drawn) [Hydrochloride of WX002] | 92 | – | 83.31 | – |
| O=C1CCC(c2noc3ccc4c(NC(=O)CN5CCN(C[C@H]6CC[C@H](n7cc(NC(=O)c8coc(-c9ccnc(NCC%10CC%10)c9)n8)c(C(F)F)n7)CC6)CC5)cccc4c23)C(=O)N1 (stereo partly drawn) [Hydrochloride of WX014] | 10.3 | 28.7 | 89.86 | 93.55 |
| O=C1CCC(c2coc3ccc4c(NC(=O)CN5CCN(C[C@H]6CC[C@H](n7cc(NC(=O)c8coc(-c9ccnc(NCC%10CC%10)c9)n8)c(C(F)F)n7)CC6)CC5)cccc4c23)C(=O)N1 (stereo partly drawn) [Trifluoroacetate of WX011] | 17 | 25.2 | 94.65 | 99.89 |

More lines, main results first:

| IC50 (TMD-8) [nM] | IC50 (SU-DHL-2) [nM] | Compound | Maximum inhibition rate (TMD-8) [%] | Maximum inhibition rate (SU-DHL-2) [%] |
| --- | --- | --- | --- | --- |
| 8.65 | 0.91 | CC(C)(O)c1cc2nc([C@H]3CC[C@H](CN4CCN(CC(=O)Nc5ccc6c(C7CCC(=O)NC7=O)noc6c5)CC4)CC3)sc2cc1NC(=O)c1cccc(C(F)(F)F)n1 (stereo partly drawn) [Formate of WX026] | 99.92 | 100.08 |
| 12.8 | 11.7 | O=C1CCC(c2noc3ccc4c(NC(=O)C(F)(F)C5CCN(CC6CCC(n7cc(NC(=O)c8coc(-c9ccnc(NCC%10CC%10)c9)n8)c(C(F)F)n7)CC6)CC5)cccc4c23)C(=O)N1 (stereo not drawn) [Hydrochloride of WX018] | 99.53 | 100.27 |
